Measurements reported in patent US11718622B2, “Heterocyclic adenosine receptor antagonists” (Exelixis, Inc., priority 2020, dated 2023).

How the values were obtained:
[1] = biological target: Adenosine A2a (ADORA2A) receptor (Homo sapiens (Human), UniProt P29274); experiment: ADORA2A Receptor Binding Assay; details: radioligand binding, membrane stock
Protocol: ADORA1A and ADORA2A Receptor Binding Assay
2 μL of each compound (test compounds, high control compound, low control compound) was transferred into individual wells of an assay plate. Also to each individual well, 98 μL of Adenosine A1a membrane stock (for ADORA1A Receptor Binding Assay) or Adenosine A2a membrane stock (for ADORA2A Receptor Binding Assay) was dispensed, followed by 100 μL of radio-labeled ligand. Plates were then sealed, and incubated at room temperature for 1 hour (for ADORA1A Receptor Binding Assay) or 2 hours (for ADORA2A Receptor Binding Assay). Unifilter-96 GF/C filter plates were pre-soaked with 50 μL of 0.3% PEI per well for at least 30 min at room temperature. When binding assays were completed, reaction mixtures were filtered through GF/C plates using a Perkin Elmer Filtermate Harvester, and then each plate was washed 4× with cold wash buffer. Filter plates were then dried for 1 hour at 50° C. After drying, the bottom of the filter plate wells was sealed using Perkin Elmer Unifilter-96 backing seal tape. 50 μL of Perkin Elmer Microscint 20 cocktail was then added, and the top of the filter plate was then sealed using Perkin Elmer TopSeal-A sealing film. ^3H trapped on the filter was counted using a Perkin Elmer MicroBeta2 Reader. Data analysis was performed using GraphPad Prism 5 software, and the “Inhibition [% Control]” was calculated using the following equation: % Inh=(1−Background subtracted Assay value/Background subtracted HC value)*100.

[2] = biological target: Adenosine A2B (ADORA2B) receptor (Homo sapiens (Human), UniProt P29275); experiment: ADORA2B Receptor Binding Assay; details: radioligand binding, membrane stock
Sequence of Adenosine A2B (ADORA2B) receptor (P29275 whole entry): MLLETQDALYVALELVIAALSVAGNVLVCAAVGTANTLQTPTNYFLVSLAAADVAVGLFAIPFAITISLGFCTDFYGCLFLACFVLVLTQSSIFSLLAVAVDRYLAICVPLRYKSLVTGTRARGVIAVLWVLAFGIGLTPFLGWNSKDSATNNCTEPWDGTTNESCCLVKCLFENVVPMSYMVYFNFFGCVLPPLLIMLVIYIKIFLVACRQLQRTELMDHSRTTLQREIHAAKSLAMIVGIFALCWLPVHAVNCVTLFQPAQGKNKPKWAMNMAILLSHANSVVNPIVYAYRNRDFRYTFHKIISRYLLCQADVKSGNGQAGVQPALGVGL
Protocol: ADORA2B Receptor Binding Assay
100 μL of Adenosine A2B membrane stock was dispensed into individual wells of an assay plate. 1 μL of each compound (test compounds, high control compound, low control compound) was then transferred into individual wells, followed by 100 μL of radio-labeled ligand. Plates were then sealed, and incubated at room temperature for 1 hour. Unifilter-96 GF/C filter plates were pre-soaked with 50 μL of 0.5% BSA per well for at least 30 min at room temperature. When binding assays were completed, reaction mixtures were filtered through GF/C plates using a Perkin Elmer Filtermate Harvester, and then each plate was washed 4× with cold wash buffer. Filter plates were then dried for 1 hour at 50° C. After drying, the bottom of the filter plate wells was sealed using Perkin Elmer Unifilter-96 backing seal tape. 50 μL of Perkin Elmer Microscint 20 cocktail was then added, and the top of the filter plate was then sealed using Perkin Elmer TopSeal-A sealing film. ^3H trapped on the filter was counted using a Perkin Elmer MicroBeta2 Reader. Data analysis was performed using GraphPad Prism 5 software, and the “Inhibition[% Control]” was calculated using the following equation: % Inh=(1−Background subtracted Assay value/Background subtracted HC value)*100.

Sequence of Adenosine A2a (ADORA2A) receptor (P29274 whole entry): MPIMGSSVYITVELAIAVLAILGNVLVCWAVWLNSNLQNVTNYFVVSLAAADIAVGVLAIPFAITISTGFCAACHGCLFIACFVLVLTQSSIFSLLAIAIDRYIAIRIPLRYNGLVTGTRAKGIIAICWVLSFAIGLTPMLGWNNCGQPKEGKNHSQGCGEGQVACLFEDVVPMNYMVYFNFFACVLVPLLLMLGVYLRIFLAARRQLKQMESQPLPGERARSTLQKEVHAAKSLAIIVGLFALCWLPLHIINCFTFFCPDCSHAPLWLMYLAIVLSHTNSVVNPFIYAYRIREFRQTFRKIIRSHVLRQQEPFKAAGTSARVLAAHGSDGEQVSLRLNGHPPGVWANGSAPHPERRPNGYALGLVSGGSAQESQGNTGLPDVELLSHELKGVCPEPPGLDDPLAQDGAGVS

| IC50 [1] [nM] | IC50 [2] [nM] | Compound |
| --- | --- | --- |
| < 10 | 100 to 1000 | Cc1ccc(-c2nc(N)cc3nc(C(C)C)nn23)o1 [Compound 13, 5-(5-methylfuran-2-yl)-2-propan-2-yl-[1,2,4]triazolo[1,5-c]pyrimidin-7-amine] |
| < 10 | < 10 | CC(=O)Nc1cc2nc(C(F)F)nn2c(-c2ccc(C)o2)n1 [Compound 126, N-[2-(difluoromethyl)-5-(5-methylfuran-2-yl)-[1,2,4]triazolo[1,5-c]pyrimidin-7-yl]acetamide] |
| 10 to 100 | 100 to 1000 | Cc1nc2c(C)c(NC(=O)C3CC3)nc(-c3ccc(C)o3)n2n1 [Compound 19, N-[2,8-dimethyl-5-(5-methylfuran-2-yl)-[1,2,4]triazolo[1,5-c]pyrimidin-7-yl]cyclopropanecarboxamide] |
| < 10 | < 10 | Cc1nc2cc(NC(=O)C3CC3)nc(-c3ccco3)n2n1 [Compound 29, N-[5-(furan-2-yl)-2-methyl-[1,2,4]triazolo[1,5-c]pyrimidin-7-yl]cyclopropanecarboxamide] |
| < 10 | < 10 | Cc1ccc(-c2nc(NC(=O)C3CC3)cn3nc(C(C)C)nc23)o1 [Compound 173, N-[8-(5-methylfuran-2-yl)-2-propan-2-yl-[1,2,4]triazolo[1,5-a]pyrazin-6-yl]cyclopropanecarboxamide] |
| < 10 | 10 to 100 | Cc1ccc(-c2nc(NC(=O)C3CC3)cn3cc(CO)nc23)o1 [Compound 209, N-[2-(hydroxymethyl)-8-(5-methylfuran-2-yl)imidazo[1,2-a]pyrazin-6-yl]cyclopropanecarboxamide] |
| < 10 | < 10 | Cc1ccc(-c2nc(NC(=O)C3CC3)cn3nc(N)nc23)o1 [Compound 187, N-[2-amino-8-(5-methylfuran-2-yl)-[1,2,4]triazolo[1,5-a]pyrazin-6-yl]cyclopropanecarboxamide] |
| < 10 | 10 to 100 | Cc1ccc(-c2nc(NC(=O)C3CC3)cn3cc(C(C)C)nc23)o1 [Compound 215, N-[8-(5-methylfuran-2-yl)-2-propan-2-ylimidazo[1,2-a]pyrazin-6-yl]cyclopropanecarboxamide] |
| < 10 | 10 to 100 | Cc1cn2cc(NC(=O)C3CC3)nc(-c3ccc(C)o3)c2n1 [Compound 199, N-[2-methyl-8-(5-methylfuran-2-yl)imidazo[1,2-a]pyrazin-6-yl]cyclopropanecarboxamide] |
| 10 to 100 | 100 to 1000 | Cc1nc2cc(NC(=O)C3CC3)nc(-c3ccc(F)c(F)c3)n2n1 [Compound 128, N-[5-(3,4-difluorophenyl)-2-methyl-[1,2,4]triazolo[1,5-c]pyrimidin-7-yl]cyclopropanecarboxamide] |
| 10 to 100 | 10 to 100 | Cc1ccc(-c2nc(NC(=O)C3CC3)cn3c(C)cnc23)o1 [Compound 196, N-[3-methyl-8-(5-methylfuran-2-yl)imidazo[1,2-a]pyrazin-6-yl]cyclopropanecarboxamide] |
| 10 to 100 | 10 to 100 | Cc1nc2c3sc(=O)[nH]c3nc(-c3ccc(C)o3)n2n1 [Compound 27, 4-methyl-7-(5-methylfuran-2-yl)-12-thia-3,5,6,8,10-pentazatricyclo[7.3.0.0^2,6]dodeca-1(9),2,4,7-tetraen-l1-one] |
| < 10 | < 10 | Cc1ccc(-c2nc(NC(=O)C3CC3)cn3nc(C(F)F)nc23)o1 [Compound 185, N-[2-(difluoromethyl)-8-(5-methylfuran-2-yl)-[1,2,4]triazolo[1,5-a]pyrazin-6-yl]cyclopropanecarboxamide] |
| < 10 | 10 to 100 | CC(=O)Nc1cc2nc(C3CCCC3)nn2c(-c2ccc(C)o2)n1 [Compound 65, N-[2-cyclopentyl-5-(5-methylfuran-2-yl)-[1,2,4]triazolo[1,5-c]pyrimidin-7-yl]acetamide] |
| < 10 | 10 to 100 | Cc1nc2cc(NC(=O)C3CC3)nc(-c3ccc(C4CC4)o3)n2n1 [Compound 38, N-[5-(5-cyclopropylfuran-2-yl)-2-methyl-[1,2,4]triazolo[1,5-c]pyrimidin-7-yl]cyclopropanecarboxamide] |
| < 10 | < 10 | CC(C)c1nc2cc(NC(=O)C3CC3)nc(-c3ccco3)n2n1 [Compound 58, N-[5-(furan-2-yl)-2-propan-2-yl-[1,2,4]triazolo[1,5-c]pyrimidin-7-yl]cyclopropanecarboxamide] |
| < 10 | < 10 | CC(=O)Nc1cc2nc(C(F)(F)F)nn2c(-c2ccc(C)o2)n1 [Compound 41, N-[5-(5-methylfuran-2-yl)-2-(trifluoromethyl)-[1,2,4]triazolo[1,5-c]pyrimidin-7-yl]acetamide] |

The next lines start with the compound.

| Compound | IC50 [1] [nM] | IC50 [2] [nM] |
| --- | --- | --- |
| O=C(Nc1cc2nc(CF)nn2c(-c2ccco2)n1)C1CC1 [Compound 149, N-[2-(fluoromethyl)-5-(furan-2-yl)-[1,2,4]triazolo[1,5-c]pyrimidin-7-yl]cyclopropanecarboxamide] | < 10 | 10 to 100 |
| COc1ccc(-c2nc(NC(=O)OC(C)(C)C)cc3nc(C)nn23)cc1 [Compound 112, tert-butyl N-[5-(4-methoxyphenyl)-2-methyl-[1,2,4]triazolo[1,5-c]pyrimidin-7-yl]carbamate] | > 1000 | > 1000 |
| Cc1ccc(-c2nc(N)c(Cl)c3nc(C(F)(F)F)nn23)o1 [Compound 42, 8-chloro-5-(5-methylfuran-2-yl)-2-(trifluoromethyl)-[1,2,4]triazolo[1,5-c]pyrimidin-7-amine] | < 10 | < 10 |
| Cc1nc2cc(N)nc(-c3ccc(S(C)(=O)=O)cc3)n2n1 [Compound 106, 2-methyl-5-(4-methylsulfonylphenyl)-[1,2,4]triazolo[1,5-c]pyrimidin-7-amine] | > 1000 | > 1000 |
| Cc1nc2cc(NC(=O)C3CC3)nc(-c3ccc(S(N)(=O)=O)cc3)n2n1 [Compound 114, N-[2-methyl-5-(4-sulfamoylphenyl)-[1,2,4]triazolo[1,5-c]pyrimidin-7-yl]cyclopropanecarboxamide] | > 1000 | > 1000 |
| Cc1ccc(-c2nc(N)cn3cc(C(F)(F)F)nc23)o1 [Compound 195, 8-(5-methylfuran-2-yl)-2-(trifluoromethyl)imidazo[1,2-a]pyrazin-6-amine] | 10 to 100 | 100 to 1000 |
| Cc1nc2cc(NC(=O)NCCN3CCOCC3)nc(-c3ccco3)n2n1 [Compound 159, 1-[5-(furan-2-yl)-2-methyl-[1,2,4]triazolo[1,5-c]pyrimidin-7-yl]-3-(2-morpholin-4-ylethyl)urea] | < 10 | 10 to 100 |
| CC(=O)Nc1cc2nc(C(C)C)nn2c(-c2ccco2)n1 [Compound 48, N-[5-(furan-2-yl)-2-propan-2-yl-[1,2,4]triazolo[1,5-c]pyrimidin-7-yl]acetamide] | < 10 | < 10 |
| Nc1nc(-c2ccccc2)c2nc(C(F)(F)F)cn2c1Cl [Compound 204, 5-chloro-8-phenyl-2-(trifluoromethyl)imidazo[1,2-a]pyrazin-6-amine] | 10 to 100 | 10 to 100 |
| CC(C)c1nc2c(-c3ccccc3)nc(N)c(Cl)n2n1 [Compound 177, 5-chloro-8-phenyl-2-propan-2-yl-[1,2,4]triazolo[1,5-a]pyrazin-6-amine] | < 10 | < 10 |
| CCCC(=O)Nc1cn2cc(C)nc2c(-c2ccco2)n1 [Compound 222, N-[8-(furan-2-yl)-2-methylimidazo[1,2-a]pyrazin-6-yl]butanamide] | 10 to 100 | 100 to 1000 |
| Cc1cn2cc(NS(C)(=O)=O)nc(-c3ccco3)c2n1 [Compound 224, N-[8-(furan-2-yl)-2-methylimidazo[1,2-a]pyrazin-6-yl]methanesulfonamide] | 100 to 1000 | > 1000 |
| CCC(=O)Nc1cn2cc(C)nc2c(-c2ccco2)n1 [Compound 220, N-[8-(furan-2-yl)-2-methylimidazo[1,2-a]pyrazin-6-yl]propanamide] | < 10 | 10 to 100 |
| CC(=O)Nc1cc2nc(C)nn2c(-c2ccoc2)n1 [Compound 72, N-[5-(furan-3-yl)-2-methyl-[1,2,4]triazolo[1,5-c]pyrimidin-7-yl]acetamide] | 100 to 1000 | > 1000 |
| COC(=O)Nc1cn2cc(C)nc2c(-c2ccco2)n1 [Compound 218, methyl N-[8-(furan-2-yl)-2-methylimidazo[1,2-a]pyrazin-6-yl]carbamate] | 10 to 100 | 100 to 1000 |
